Our source for the Ki values is ChEMBL document CHEMBL1144340, “QSAR for phospholipase A2 inhibitions by 1-acyloxy-3-N-n-octylcarbamyl-benzenes” (Bioorg Med Chem Lett, 2005).

For this assay, the target named is T1, Acidic phospholipase A2 CM-I (Naja mossambica, UniProt P00602).
T1 sequence (P00602 whole entry): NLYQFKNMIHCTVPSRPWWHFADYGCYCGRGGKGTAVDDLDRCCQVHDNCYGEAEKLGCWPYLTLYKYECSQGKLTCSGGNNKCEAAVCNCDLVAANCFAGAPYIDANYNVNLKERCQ
Put plainly: Inhibitory activity against phospholipase A2.
For the molecule `CCCCCCCCNC(=O)Oc1cccc(OC(=O)Cc2ccccc2)c1`, the Ki (commonly a dissociation constant, usually derived from enzyme kinetics or from competition with a known ligand) turned out to be 73 µM. Turning to `CCCCCCCCNC(=O)Oc1cccc(OC(=O)c2ccccc2)c1`, the Ki turned out to be 95 µM. Regarding `CCCCCCCCNC(=O)Oc1cccc(OC(=O)C(c2ccccc2)(c2ccccc2)c2ccccc2)c1`, affinity was put at a Ki of 38 µM. As for `CCCCCCCCNC(=O)Oc1cccc(OC(=O)CCCCCCC)c1`, affinity was put at a Ki of 27 µM. For `CCCCCCCCNC(=O)Oc1cccc(OC(=O)CCCC)c1`, the Ki is 75 µM. Regarding `CCCCCCCCNC(=O)Oc1cccc(OC(=O)C(C)(C)C)c1`, the Ki stood at 55 µM.

Consider `CCCCCCCCCCCCCCCC(=O)Oc1cccc(OC(=O)NCCCCCCCC)c1`, for which the affinity corresponds to a Ki of 9.6 µM.

`CCCCCCCCNC(=O)Oc1cccc(OC(=O)C(Cl)(Cl)Cl)c1` displayed an inhibition constant Ki of 120 µM. Molecule `CCCCCCCCNC(=O)Oc1cccc(OC(C)=O)c1` had a Ki of 98 µM.
